Experiment [1] has as its target T1, CDK2/CycE (Homo sapiens, UniProt P24941).
T1 construct: purchased ProQinase GmbH (Freiburg, Germany); host or cells: insect cells (Sf9)
The experiment in a line: CDK2/CycE kinase assay (TR-FRET, 2 mM ATP). The experiment is classed as biochemical. As to conditions: 2 mM ATP (high ATP); median; read-out: CDK2/CyclinE, 2 mM ATP (high ATP), IC50 (median). A digest of the protocol: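 Biotin-peptide phosphorylation (0.75 µM substrate, 2 mM ATP final, 25 min, 22 °C) by Sf9-expressed GST-CDK2/GST-CycE, after a 15-min compound pre-binding step. Inhibition scaled between enzyme-free (100%) and uninhibited (0%) wells.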
A general note: Time-resolved FRET reads energy transfer from a long-lived donor to a nearby acceptor.

The subject of experiment [2] is BRCA1 mRNA expression in MDA-MB-231 cells. The experiment in a line: qRT-PCR assay: BRCA1 mRNA expression in MDA-MB-231. Format: cell-based, human. The conditions noted are these: Homo sapiens, MDA-MB-231, Inhibition of BRCA1 mRNA expression in MDA-MB-231 cells; median; read-out: RTqPCR-MDA-MB-231, IC50, BRCA1 (median). The procedure, abridged:
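BRCA1 transcript by RT-qPCR relative to GAPDH, from 600 ng RNA converted to cDNA. MDA-MB-231 cells plated at 200,000/well received test compound continuously for 24 h, starting 24 h post-seeding.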

In experiment [3] the target is T2, CDK9/CycT1 (Homo sapiens, UniProt P50750).
T2 construct: Recombinant full-length His-tagged human CDK9 and CycT1; purchased Life Technologies PV4131; host or cells: insect cells
T2 sequence (P50750 whole entry): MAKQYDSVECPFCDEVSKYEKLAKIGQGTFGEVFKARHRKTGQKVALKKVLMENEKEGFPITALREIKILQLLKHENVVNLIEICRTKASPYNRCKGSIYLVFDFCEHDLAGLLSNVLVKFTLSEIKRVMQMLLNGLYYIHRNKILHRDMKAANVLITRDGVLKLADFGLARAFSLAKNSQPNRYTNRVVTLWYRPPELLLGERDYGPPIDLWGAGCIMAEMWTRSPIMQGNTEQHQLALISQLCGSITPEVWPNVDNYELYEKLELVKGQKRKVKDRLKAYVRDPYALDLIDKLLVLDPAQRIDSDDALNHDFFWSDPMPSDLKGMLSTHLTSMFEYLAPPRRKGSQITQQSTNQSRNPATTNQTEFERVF
T2 sequence (O60563 whole entry partner): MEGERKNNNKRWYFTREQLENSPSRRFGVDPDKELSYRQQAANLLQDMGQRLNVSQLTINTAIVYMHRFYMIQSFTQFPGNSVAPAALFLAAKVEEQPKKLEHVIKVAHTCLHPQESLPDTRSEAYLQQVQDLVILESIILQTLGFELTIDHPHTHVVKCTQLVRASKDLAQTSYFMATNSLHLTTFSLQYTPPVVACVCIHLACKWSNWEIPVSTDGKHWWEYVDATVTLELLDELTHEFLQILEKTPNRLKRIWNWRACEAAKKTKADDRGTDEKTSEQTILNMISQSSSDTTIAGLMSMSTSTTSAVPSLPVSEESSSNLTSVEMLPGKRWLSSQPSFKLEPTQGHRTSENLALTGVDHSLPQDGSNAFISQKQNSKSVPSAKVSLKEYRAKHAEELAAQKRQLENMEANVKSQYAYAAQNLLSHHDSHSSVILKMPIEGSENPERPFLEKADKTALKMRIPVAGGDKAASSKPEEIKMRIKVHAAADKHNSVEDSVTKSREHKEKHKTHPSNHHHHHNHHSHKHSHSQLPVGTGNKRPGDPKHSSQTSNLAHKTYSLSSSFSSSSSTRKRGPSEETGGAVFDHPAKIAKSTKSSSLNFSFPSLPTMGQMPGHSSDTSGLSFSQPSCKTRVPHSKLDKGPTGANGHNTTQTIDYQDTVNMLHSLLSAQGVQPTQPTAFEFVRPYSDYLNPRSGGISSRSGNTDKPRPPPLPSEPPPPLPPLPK
The experiment is described as follows: CDK9/CycT1 high ATP kinase assay (TR-FRET, 2 mM ATP). Format: biochemical. As to conditions: 2 mM ATP (high ATP); median; read-out: CDK9/CyclinT1, 2 mM ATP (high ATP), IC50 (median). A digest of the protocol: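 Full-length His-tagged human CDK9/CycT1 (insect cell, ~0.5 μg/mL) preincubated 15 min at 22 °C with compound in Tris pH 8.0, MgCl2, DTT buffer before reaction with biotinylated peptide substrate at high ATP (2 mM).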

Molecules are shown by their SMILES. Where only a bound is given, the exact number is not on record here.

On to `Fc1cccc2[nH]c(CNc3nc(N4C[C@@H]5C[C@H]4CO5)nc4c(C5CC5)cnn34)nc12` [Example 183, 8-cyclopropyl-N-[(4-fluoro-1H-benzimidazol-2-yl)methyl]-2-[(1S,4S)-2-oxa-5-azabicyclo[2.2.1]heptan-5-yl]pyrazolo[1,5-a][1,3,5]triazin-4-amine], for which the IC50 in experiment [1] is above 20000 nM; in experiment [2] it was 4.17 nM; in experiment [3], above 20000 nM.
For `C[C@@H]1CN(c2nc(NCc3nc4c(F)c(F)ccc4[nH]3)n3ncc(C4CC4)c3n2)C[C@H](C)N1` [Example 170, 8-cyclopropyl-N-[(4,5-difluoro-1H-benzimidazol-2-yl)methyl]-2-[(3R,5S)-3,5-dimethylpiperazin-1-yl]pyrazolo[1,5-a][1,3,5]triazin-4-amine], the figures for the IC50 in experiment [1], in experiment [2] and in experiment [3] were above 20000 nM, 0.419 nM and above 20000 nM, respectively.
Take `CN1CCN(c2nc(NCc3nc4ccccc4[nH]3)n3ncc(Br)c3n2)CC1` [Example 18, N-[(1H-benzimidazol-2-yl)methyl]-8-bromo-2-(4-methylpiperazin-1-yl)pyrazolo[1,5-a][1,3,5]triazin-4-amine]: the IC50 in experiment [1] is 6290 nM; in experiment [2], 11.4 nM; in experiment [3], above 20000 nM.
For the compound `OC1(C(F)(F)F)CCN(c2nc(NCc3nc4ccccc4[nH]3)n3ncc(Br)c3n2)C1` (stereo not drawn) [Example 200, 1-[4-(1H-benzimidazol-2-ylmethylamino)-8-bromo-pyrazolo[1,5-a][1,3,5]triazin-2-yl]-3-(trifluoromethyl)pyrrolidin-3-ol], the IC50 in experiment [1] is 4630 nM; in experiment [2] it was 66.2 nM; in experiment [3], above 20000 nM.
In the same order, the values of `O[C@H]1CCN(c2nc(NCc3nc4ccccc4[nH]3)n3ncc(Br)c3n2)C1` [Example 224, (3S)-1-(4-{[(1H-benzimidazol-2-yl)methyl]amino}-8-bromopyrazolo[1,5-a][1,3,5]triazin-2-yl)pyrrolidin-3-ol] are 7750 nM, 21.2 nM and above 20000 nM.
On to `CN(CC(C)(C)O)c1nc(NCc2nc3ccccc3[nH]2)n2ncc(Br)c2n1` [Example 238, 1-[(4-{[(1H-benzimidazol-2-yl)methyl]amino}-8-bromopyrazolo[1,5-a][1,3,5]triazin-2-yl)(methyl)amino]-2-methylpropan-2-ol], for which the IC50 in experiment [1] is 1860 nM; in experiment [2], above 12.4 nM; in experiment [3], above 18700 nM.
With `Fc1ccc2[nH]c(CNc3nc(N4CCNCC4)nc4c(C5CC5)cnn34)nc2c1F` [Example 174, 8-cyclopropyl-N-[(4,5-difluoro-1H-benzimidazol-2-yl)methyl]-2-(piperazin-1-yl)pyrazolo[1,5-a][1,3,5]triazin-4-amine], the IC50 in experiment [1] is above 20000 nM; in experiment [2] it was 0.872 nM; in experiment [3], above 20000 nM.
In the case of `O[C@H]1C[C@@H](Nc2nc(NCc3nc4ccccc4[nH]3)n3ncc(Br)c3n2)C1` [Example 234, cis-3-[(4-{[(1H-benzimidazol-2-yl)methyl]amino}-8-bromopyrazolo[1,5-a][1,3,5]triazin-2-yl)amino]cyclobutan-1-ol], the values for the IC50 in experiment [1], in experiment [2] and in experiment [3] were 2730 nM, 5.76 nM and above 20000 nM, respectively.
In the same order, the values of `C[C@@H]1CN(c2nc(NCc3nc4ccccc4[nH]3)n3ncc(Br)c3n2)CCN1` [Example 168, N-[(1H-benzimidazol-2-yl)methyl]-8-bromo-2-[(3R)-3-methylpiperazin-1-yl]pyrazolo[1,5-a][1,3,5]triazin-4-amine] are 12300 nM, 2.46 nM and above 20000 nM.
The matching figures for `Cc1ccc2[nH]c(CNc3nc(N4C[C@H]5C[C@@H]4CO5)nc4c(C5CC5)cnn34)nc2c1` [Example 196, 8-cyclopropyl-N-[(5-methyl-1H-benzimidazol-2-yl)methyl]-2-[(1R,4R)-2-oxa-5-azabicyclo[2.2.1]heptan-5-yl]pyrazolo[1,5-a][1,3,5]triazin-4-amine]: above 19800 nM, 4.27 nM and above 20000 nM.
As to `Brc1cnn2c(NCc3nc4ccccc4[nH]3)nc(N3CC4CCC(C3)N4)nc12` [Example 232, N-(1H-benzimidazol-2-ylmethyl)-8-bromo-2-(3,8-diazabicyclo[3.2.1]octan-3-yl)pyrazolo[1,5-a][1,3,5]triazin-4-amine], the IC50 in experiment [1] was 2870 nM; in experiment [2] it was 4.92 nM; in experiment [3] it was above 20000 nM.
The matching figures for `Fc1ccc2[nH]c(CNc3nc(N4CCOCC4)nc4c(C5CC5)cnn34)nc2c1F` [Example 172, 8-cyclopropyl-N-[(4,5-difluoro-1H-benzimidazol-2-yl)methyl]-2-(morpholin-4-yl)pyrazolo[1,5-a][1,3,5]triazin-4-amine]: above 20000 nM, 0.626 nM and above 20000 nM.
Take `Brc1cnn2c(NCc3nc4ccccc4[nH]3)nc(N3CCC4(CCCN4)C3)nc12` (stereo not drawn) [Example 215, N-(1H-benzimidazol-2-ylmethyl)-8-bromo-2-(1,7-diazaspiro[4.4]nonan-7-yl)pyrazolo[1,5-a][1,3,5]triazin-4-amine]: the IC50 in experiment [1] was 8980 nM; in experiment [2], 131 nM; in experiment [3], above 20000 nM.
For the compound `Cc1ccc2[nH]c(CNc3nc(N4C[C@@H]5CCCN[C@@H]5C4)nc4c(C5CC5)cnn34)nc2c1` [Example 195, 8-cyclopropyl-N-[(5-methyl-1H-benzimidazol-2-yl)methyl]-2-[(4aS,7aS)-octahydro-6H-pyrrolo[3,4-b]pyridin-6-yl]pyrazolo[1,5-a][1,3,5]triazin-4-amine], the IC50 in experiment [1] is above 20000 nM; in experiment [2] it was 2.83 nM; in experiment [3], above 20000 nM.
Turning to `CC1(O)CCN(c2nc(NCc3nc4ccccc4[nH]3)n3ncc(Br)c3n2)C1` (stereo not drawn) [Example 225, 1-[4-(1H-benzimidazol-2-ylmethylamino)-8-bromo-pyrazolo[1,5-a][1,3,5]triazin-2-yl]-3-methyl-pyrrolidin-3-ol], the IC50 in experiment [1] was 5390 nM; in experiment [2], 34.8 nM; in experiment [3], above 20000 nM.
The matching figures for `Fc1ccc2[nH]c(CNc3nc(N4CCNCC4)nc4c(C5CC5)cnn34)nc2c1` [Example 190, 8-cyclopropyl-N-[(5-fluoro-1H-benzimidazol-2-yl)methyl]-2-(piperazin-1-yl)pyrazolo[1,5-a][1,3,5]triazin-4-amine]: above 20000 nM, 3.27 nM and above 20000 nM.
As to `Cc1ccc2[nH]c(CNc3nc(N4C[C@@H]5CCCN[C@@H]5C4)nc4c(Br)cnn34)nc2c1` [Example 203, 8-bromo-N-[(5-methyl-1H-benzimidazol-2-yl)methyl]-2-[(4aS, 7aS)-octahydro-6H-pyrrolo[3,4-b]pyridin-6-yl]pyrazolo[1,5-a][1,3,5]triazin-4-amine], the IC50 in experiment [1] is 9300 nM; in experiment [2] it was 1.19 nM; in experiment [3], above 20000 nM.
The matching figures for `Fc1cccc2[nH]c(CNc3nc(N4C[C@@H]5CCCN[C@@H]5C4)nc4c(C5CC5)cnn34)nc12` [Example 187, 8-cyclopropyl-N-[(4-fluoro-1H-benzimidazol-2-yl)methyl]-2-[(4aS,7aS)-octahydro-6H-pyrrolo[3,4-b]pyridin-6-yl]pyrazolo[1,5-a][1,3,5]triazin-4-amine]: above 20000 nM, 9.17 nM and above 20000 nM.
In the same order, the values of `OC[C@@H]1CCCCN1c1nc(NCc2nc3c(F)c(F)ccc3[nH]2)n2ncc(C3CC3)c2n1` [Example 184, [(2S)-1-(8-cyclopropyl-4-{[(4,5-difluoro-1H-benzimidazol-2-yl)methyl]amino}pyrazolo[1,5-a][1,3,5]triazin-2-yl)piperidin-2-yl]methanol] are 2720 nM, 3.89 nM and 1640 nM.
The matching figures for `COc1ccc2[nH]c(CNc3nc(N4C[C@@H](C)N[C@@H](C)C4)nc4c(Br)cnn34)nc2c1` [Example 205, 8-bromo-2-[(3R,5S)-3,5-dimethylpiperazin-1-yl]-N-[(5-methoxy-1 H-benzimidazol-2-yl)methyl]pyrazolo[1,5-a][1,3,5]triazin-4-amine]: above 20000 nM, 1.81 nM and above 20000 nM.
`COc1cccc2[nH]c(CNc3nc(N4CCN(C)CC4)nc4c(C5CC5)cnn34)nc12` [Example 197, 8-cyclopropyl-N-[(4-methoxy-1H-benzimidazol-2-yl)methyl]-2-(4-methylpiperazin-1-yl)pyrazolo[1,5-a][1,3,5]triazin-4-amine]: the IC50 in experiment [1] was 13400 nM; in experiment [2], 6.27 nM; in experiment [3], above 20000 nM.
Turning to `CN1C[C@H]2C[C@@H]1CN2c1nc(NCc2nc3ccccc3[nH]2)n2ncc(Br)c2n1` [Example 218, N-[(1H-benzimidazol-2-yl)methyl]-8-bromo-2-[(1R,4R)-5-methyl-2,5-diazabicyclo[2.2.1]heptan-2-yl]pyrazolo[1,5-a][1,3,5]triazin-4-amine], the IC50 in experiment [1] is 5780 nM; in experiment [2] it was 12.3 nM; in experiment [3], above 20000 nM.

The values above are taken from patent US20230117034A1, “PYRAZOLOTRIAZINES” (Bayer Aktiengesellschaft, priority 2019, published 2023).
